The text below walks through data of US5994398A, “Arylsulfonamides as phospholipase A2 inhibitors” (Elan Pharmaceuticals, Inc., priority 1996, dated 1999).

The subject of one experiment is Ca^+2 -independent PLA2. The note with it: Ackermann et al. (1995); cited from earlier work.
The next experiment deals with cPLA2. Particulars: Street et al. (1993); cited from earlier work.
In experiment [1] the test system is Alzheimer's Disease patients. Particulars: selected group of five AD patients; cited from earlier work.
The test system of experiment [2] is IL-1β and TNF-α release in cultured microglial cells. The experiment is described as follows: Aβ1-40-induced cytokine (IL-1β and TNF-α) release in microglia, ELISA. Particulars: 50 μM Aβ1-40, cultured microglia, vs vehicle control. In kind it is cell-based, human. The procedure: Cultures of human cortical astrocytes and microglia were prepared using a modification of the procedure described for cortical neurons. Cortical tissue from fetuses of 16 to 20 weeks of gestation was washed 3 times in Ca^2+ /Mg^2+ free Hanks balanced salt solution (CMF HBSS) and then dissociated by repeated pipetting. The solution was brought to a final volume of 80 mL CMF HBSS for approximately 10 mL of tissue. DNase (Sigma) was added to a final concentration of 0.05 mg/mL. 20 mL of the solution was passed through one 100 μm nylon cell strained (Falcon). The cells were then centrifuged for 5 minutes at 200×G in an IEC Clinical Centrifuge and resuspended in a trypsin/EDTA solution (0.05% trypsin+0.53 mM EDTA in HBSS; Gibco) and incubated for 20 minutes at 37° C. (10 mL of trypsin was added per 2-3 mL of tissue). The trypsin was then inactivated by adding (MEM/FBS): Modified Eagle's Medium (MEM) containing 1% glucose, 1 mM sodium pyruvate, 1 mM glutamine, and supplemented with 10% fetal bovine serum (JRH). After adding a final concentration of 0.05 mg/mL DNase the cells were resuspended and then pelleted by centrifugation and resuspended in MEM/FBS. […]
Cultured microglial cells were treated with 50 μM of Aβ1-40 or vehicle only (Control). The levels of IL-1β and TNF-α released into the culture medium were determined by ELISA assay (R&D Systems) according to manufacturer's instructions. […]
In general terms: ELISA stands for enzyme-linked immunosorbent assay.

In the case of `O=C1O/C(=C/Br)CCC1c1cccc2ccccc12` (stereo not drawn) [Bromoenol lactone], the “inhibition of Ca+2-independent PLA2 activity” value with Ca^+2 -independent PLA2 is “capable of inhibiting”. Besides, the “inhibition of cPLA2” value with cPLA2 is on record as “capable of inhibiting”.
In the case of `CCCCC/C=C\C/C=C\C/C=C\C/C=C\CCCC(=O)C(F)(F)F` [arachidonyl trifluoromethyl ketone], the “inhibition of Ca+2-independent PLA2 activity” value in the experiment on Ca^+2 -independent PLA2 is on record as “capable of inhibiting”. In addition, in the experiment with cPLA2, the “inhibition of cPLA2” value is listed as “capable of inhibiting”.
As to `COc1ccc2c(c1)c(CC(=O)O)c(C)n2C(=O)c1ccc(Cl)cc1` [indomethacin], in experiment [1], the “effects on neuropathological progression” value is recorded as “no effects on neuropathological progression were noted” and the “symptomatic progression of AD” value is recorded as “allegedly useful in reducing symptomatic progression”.
Regarding `CCCCCCCCCCCCCCCC(=O)C(F)(F)F` [palmitoyl trifluoromethyl ketone], the “inhibition of Ca+2-independent PLA2 activity” value in the experiment on Ca^+2 -independent PLA2 was “capable of inhibiting”. Besides, the “inhibition of cPLA2” value with cPLA2 was “capable of inhibiting”.
For the compound “Aβ1-40: Amyloid-β (Aβ) peptide 1-40, stock solutions 1 mM in sterile ddH2O”, the “stimulation of release of IL-1β and TNF-α into culture medium” value in experiment [2] was “found to stimulate the release of IL-1β and TNF-α”.
